Assays:
[1] = biological target: T1, DRB1*03:01 (Homo sapiens, UniProt P01903+P01911, A100K/A102G/A103R/A169T/F55Y/I96L/K41T/L162R/M171V/P40S/Q125H/Q178H/Q39Y/R42S/S66N/T106N/T262R/W38E/Y61H); test: REVEAL HLA-Peptide binding assay (ProImmune); conditions: score relative to high-affinity control peptide, percentage of the control signal
T1 construct: purchased ProImmune
Description: (§1) To test the designs, we synthesized twenty overlapping 15-mer peptides containing the introduced mutations and their wild-type counterparts. The peptides maximally covered the predicted epitopes around the mutations of all designed constructs that contained one and two mutations (Supplementary S2 Table). The affinity of these peptides to the three HLA alleles was measured at time zero and after 24 hours (Methods, Supplementary S3 and S4 Tables). We linearly combined the measured relative affinity scores across HLA alleles weighted by their allele frequencies for each peptide respectively to produce a score that approximates the overall immunogenicity (Fig 5A). Results are presented for measurements taken at time point zero. […] Overall, the measured and predicted immunogenicity of the tested peptides correlated well with r = 0.76 (CI95 = [0.48, 0.91], t = 4.885, df = 17, p-value = 1.4e-4; Fig 5A). Next, we compared the predicted and measured gain or loss in immunogenicity for the whole region by reconstructing the targeted region using overlapping peptides. The measured relative scores were linearly combined (as previously) and then normalized to the number of overlapping peptides used in the reconstruction (Fig 5B). The difference in the measured scores between the wild type and mutant regions can be thought of as a proxy for gain or loss in immunogenicity and correlated well to the predicted changes (r = 0.86, CI95 = [0.40, 0.97], t = 4.136, df = 6, p-value = 6.1e-3; Fig 5B).
(§2) In order to experimentally verify our in silico predictions for Factor VIII, we utilized the commercial REVEAL HLA-Peptide binding assay of ProImmune (www.proimmune.com). Peptides were synthesized using the PEPscreen custom library synthesis method, yielding high purity peptides for experimental analysis. HLA-peptide binding was assessed for the three HLA-DRB1 alleles used in this study (DRB1*15:01, DRB1*03:01 and DRB1*07:01). In short, the method compares the affinity of the studied peptide to the affinity of a high-affinity control peptide. Each peptide is then scored for binding to a certain HLA molecule relative to the score of the control peptide and reported as the percentage of the signal generated by the control peptide.

[2] = biological target: DRB1*07:01 (Homo sapiens, UniProt P01903+P01911, A100R/A102G/A103Q/D57E/D86V/E43K/F76Y/K127E/L162R/M171V/P40G/Q125H/Q99D/R33Q/R42Y/R54Q/S133A/S66F/T210M/V115G/Y107V/Y59L/Y89S); test: REVEAL HLA-Peptide binding assay (ProImmune); conditions: score relative to high-affinity control peptide, percentage of the control signal
Description: as §1, §2

[3] = biological target: T2, DRB1*15:01 (Homo sapiens, UniProt P01903+P01911); test: REVEAL HLA-Peptide binding assay (ProImmune); conditions: score relative to high-affinity control peptide, percentage of the control signal
T2 construct: purchased ProImmune
Description: as §1, §2

[4] = system: DRB1*15:01, DRB1*03:01 and DRB1*07:01; test: Experimental immunogenicity score: relative HLA binding combined across alleles, weighted by allele frequency; parameters: species or system human; key: allele-frequency-weighted sum of binding, % of control peptide signal; conditions: for Difference to WT (Experimental Score): per peptide against wild-type counterpart; for Experimental Score: per peptide, weights DRB1*15:01 0.162, DRB1*07:01 0.146, DRB1*03:01 0.143
Description: as §1
Fig 5 (A) Correlation of experimental and predicted immunogenicity of each peptide. The experimental immunogenicity score of a peptide is defined as the linear combination of the individual experimentally determined relative HLA binding affinity of each HLA allele h ∈ H weighted by the HLA allele frequency. (B) Correlation of experimental and predicted immunogenicity of the whole redesigned region. The summarized immunogenicity score of the whole region is the linear combination of the overlapping peptides used to reconstruct the region, normalized by total number of peptides used. The predicted immunogenicity scores per peptide were computed according to our immunogenicity objective function. The red lines are a fitted linear regression and the red tubes represent their 95-confidence interval.
as §2

[5] = time 0 (H0), listed as LRIHPQSWVHHIALRM
[6] = time 0 (H0), listed as VNSLDPPLLTRYLRI
[7] = time 0 (H0), listed as FTRYLRIHPQSWVHH

Row | Sequence | DRB1*03:01 ([1]; after 24 hours (H24)) | DRB1*03:01 ([1]; time 0 (H0)) | DRB1*03:01 [1, 5] | DRB1*07:01 ([2]; after 24 hours (H24)) | DRB1*07:01 ([2]; time 0 (H0)) | DRB1*07:01 [2, 5] | DRB1*15:01 ([3]; after 24 hours (H24)) | DRB1*15:01 ([3]; time 0 (H0)) | DRB1*15:01 [3, 5] | Difference to WT (Experimental Score) ([4]; after 24 hours (H24)) | Experimental Score ([4]; after 24 hours (H24)) | Difference to WT (Experimental Score) ([4]; time 0 (H0)) | Experimental Score ([4]; time 0 (H0)) | DRB1*03:01 [1, 6] | DRB1*07:01 [2, 6] | DRB1*15:01 [3, 6] | DRB1*03:01 [1, 7] | DRB1*07:01 [2, 7] | DRB1*15:01 [3, 7]
1 | LRIHPQSWVHHIALRM [Design M-5, peptide covering Q2335H] | 0.000% | 0.555% | 0.6% | 40.700% | 65.265% | 65.3% | 20.400% | 47.784% | 47.8% | 0.870 | 9.247 | 0.779 | 17.349 | – | – | – | – | – | –
2 | RIHPQSWVHQIALRM [WT-2, wild-type peptide of Factor VIII C2 domain, reference compound] | 0.000% | 0.226% | – | 35.522% | 40.243% | – | 0.00277% | 5.029% | – | – | 5.187 | – | 6.723 | – | – | – | – | – | –
3 | VNSLDPPLLTRYLRI [WT-1, wild-type peptide of Factor VIII C2 domain, reference compound] | 0.000% | 0.697% | – | 0.370% | 0.810% | – | 0.000% | 7.274% | – | – | 0.054 | – | 1.396 | 0.7% | 0.8% | 7.3% | – | – | –
4 | FTRYLRIHPQSWVHH [Design M-13, peptide covering L2321F, Q2335H] | 0.000% | 1.449% | – | 29.800% | 39.809% | – | 7.500% | 16.564% | – | -7.821 | 5.566 | -9.019 | 8.703 | – | – | – | 1.4% | 39.8% | 16.6%
5 | LRLHPQSWEHQIALRM [Design M-15, peptide covering I2327L, V2333E] | 0.000% | 0.032% | – | 21.500% | 42.841% | – | 5.300% | 18.099% | – | -4.380 | 3.998 | -7.378 | 9.191 | – | – | – | – | – | –
